23 compounds from US10544147B2, “Purine inhibitors of human phosphatidylinositol 3-kinase delta” (MERCK SHARP & DOHME CORP., priority 2016, dated 2020) can be followed below.

Some results are limits rather than exact numbers.

One assay addresses PI3Kalpha (Homo sapiens (Human), UniProt P42336). The assay can be described thus: HTRF PI3K biochemical assay, alpha isoform (selectivity versus delta). The following applies: ratio PI3K-alpha IC50 value/PI3K-delta IC50 value.
The next assay deals with PI3Kdelta (Homo sapiens (Human), UniProt O00329). Description: HTRF PI3K biochemical assay, delta isoform. The settings on record: 0.3 nM enzyme, 100 uM ATP, 50 uM PIP2; form screened (neutral or TFA salt). Background: TR-FRET usually uses a lanthanide donor and a delayed reading to cut background.
PI3Kdelta, sequence (O00329 whole entry, canonical isoform): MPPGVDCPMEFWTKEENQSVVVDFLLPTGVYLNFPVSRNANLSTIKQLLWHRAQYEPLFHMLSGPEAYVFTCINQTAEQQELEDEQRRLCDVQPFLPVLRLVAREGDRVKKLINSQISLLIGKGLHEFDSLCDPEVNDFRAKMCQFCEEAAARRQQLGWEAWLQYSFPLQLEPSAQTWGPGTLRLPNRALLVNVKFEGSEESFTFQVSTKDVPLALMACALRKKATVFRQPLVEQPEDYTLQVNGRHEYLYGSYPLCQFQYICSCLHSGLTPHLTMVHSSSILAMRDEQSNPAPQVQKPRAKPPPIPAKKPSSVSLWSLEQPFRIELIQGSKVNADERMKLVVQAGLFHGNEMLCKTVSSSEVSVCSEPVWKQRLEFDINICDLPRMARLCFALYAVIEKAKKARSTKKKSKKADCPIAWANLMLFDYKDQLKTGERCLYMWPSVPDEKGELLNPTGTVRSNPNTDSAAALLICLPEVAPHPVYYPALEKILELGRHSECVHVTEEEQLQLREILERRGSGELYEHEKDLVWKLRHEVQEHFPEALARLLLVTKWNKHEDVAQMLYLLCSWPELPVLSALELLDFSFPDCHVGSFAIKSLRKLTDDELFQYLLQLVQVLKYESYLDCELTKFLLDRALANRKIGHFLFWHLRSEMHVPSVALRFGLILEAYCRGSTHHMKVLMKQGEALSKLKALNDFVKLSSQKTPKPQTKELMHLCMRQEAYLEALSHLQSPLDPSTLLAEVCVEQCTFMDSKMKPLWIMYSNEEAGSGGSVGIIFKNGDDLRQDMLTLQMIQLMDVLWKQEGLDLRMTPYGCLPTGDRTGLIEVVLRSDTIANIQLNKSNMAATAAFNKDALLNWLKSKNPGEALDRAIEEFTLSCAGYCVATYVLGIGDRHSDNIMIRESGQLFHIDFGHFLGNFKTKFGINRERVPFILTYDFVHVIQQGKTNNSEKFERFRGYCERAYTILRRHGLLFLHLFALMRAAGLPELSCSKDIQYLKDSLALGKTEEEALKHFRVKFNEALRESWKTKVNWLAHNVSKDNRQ
PI3Kdelta, sequence (P27986 whole entry partner, canonical isoform): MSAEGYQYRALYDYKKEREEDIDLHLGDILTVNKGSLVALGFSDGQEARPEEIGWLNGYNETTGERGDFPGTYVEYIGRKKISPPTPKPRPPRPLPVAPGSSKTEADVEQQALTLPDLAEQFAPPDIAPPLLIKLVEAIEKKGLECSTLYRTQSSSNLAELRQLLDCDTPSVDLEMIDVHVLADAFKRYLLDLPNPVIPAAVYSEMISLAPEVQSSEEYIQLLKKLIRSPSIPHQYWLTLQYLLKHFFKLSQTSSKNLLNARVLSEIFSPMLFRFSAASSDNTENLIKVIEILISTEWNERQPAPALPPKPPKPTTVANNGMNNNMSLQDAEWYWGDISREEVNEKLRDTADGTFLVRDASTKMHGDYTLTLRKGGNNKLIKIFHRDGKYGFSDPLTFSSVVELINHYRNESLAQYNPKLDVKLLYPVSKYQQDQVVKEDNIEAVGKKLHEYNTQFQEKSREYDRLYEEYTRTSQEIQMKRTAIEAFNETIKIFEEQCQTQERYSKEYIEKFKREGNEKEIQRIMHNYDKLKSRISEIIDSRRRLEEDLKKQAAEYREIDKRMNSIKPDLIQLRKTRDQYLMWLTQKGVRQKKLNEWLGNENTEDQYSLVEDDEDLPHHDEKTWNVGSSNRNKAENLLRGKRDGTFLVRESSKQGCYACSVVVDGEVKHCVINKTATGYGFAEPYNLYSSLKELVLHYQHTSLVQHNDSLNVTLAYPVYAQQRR

PI3Kalpha, sequence (P42336 whole entry, canonical isoform): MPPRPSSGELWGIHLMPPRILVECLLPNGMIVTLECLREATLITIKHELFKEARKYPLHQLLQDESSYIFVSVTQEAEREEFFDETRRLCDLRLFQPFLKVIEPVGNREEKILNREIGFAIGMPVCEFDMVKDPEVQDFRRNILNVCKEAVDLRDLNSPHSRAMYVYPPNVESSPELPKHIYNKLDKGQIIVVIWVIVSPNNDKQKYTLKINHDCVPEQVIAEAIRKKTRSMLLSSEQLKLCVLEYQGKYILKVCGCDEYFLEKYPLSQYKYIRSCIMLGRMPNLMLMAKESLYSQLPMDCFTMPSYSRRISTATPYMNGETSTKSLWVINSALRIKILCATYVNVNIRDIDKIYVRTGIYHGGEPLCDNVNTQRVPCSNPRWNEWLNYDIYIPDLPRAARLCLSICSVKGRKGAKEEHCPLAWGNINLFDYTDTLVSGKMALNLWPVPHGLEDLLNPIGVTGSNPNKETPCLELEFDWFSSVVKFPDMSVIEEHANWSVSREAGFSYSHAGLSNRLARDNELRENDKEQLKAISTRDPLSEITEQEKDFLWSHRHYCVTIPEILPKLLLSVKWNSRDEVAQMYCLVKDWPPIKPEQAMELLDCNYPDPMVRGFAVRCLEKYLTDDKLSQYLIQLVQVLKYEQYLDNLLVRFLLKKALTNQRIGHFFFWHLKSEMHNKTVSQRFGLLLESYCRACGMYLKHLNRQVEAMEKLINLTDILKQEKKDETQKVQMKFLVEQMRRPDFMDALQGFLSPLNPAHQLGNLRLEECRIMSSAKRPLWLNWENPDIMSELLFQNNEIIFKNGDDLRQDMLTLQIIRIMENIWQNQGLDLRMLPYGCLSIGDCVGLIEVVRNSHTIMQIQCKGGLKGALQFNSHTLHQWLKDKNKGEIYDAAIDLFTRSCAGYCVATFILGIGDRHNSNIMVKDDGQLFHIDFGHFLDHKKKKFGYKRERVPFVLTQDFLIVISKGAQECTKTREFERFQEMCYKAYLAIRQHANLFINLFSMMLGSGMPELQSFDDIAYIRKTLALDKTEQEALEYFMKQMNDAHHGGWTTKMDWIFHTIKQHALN
PI3Kalpha, sequence (P27986 whole entry partner, canonical isoform): as the sequence (P27986 whole entry partner, canonical isoform) above

For orientation: IC50 means the concentration at which inhibition is half-maximal. Consider `CCn1c(-c2cnc(C)nc2)nc2c(-c3ccc4c(c3)C(C)(NCC3(F)COC3)C(=O)N4)ncnc21` (single isomer, unassigned) [Compound 2-72, (R or S)-5-(9-ethyl-8-(2-methylpyrimidin-5-yl)-9H-purin-6-yl)-3-(((3-fluorooxetan-3-yl)methyl)amino)-3-methylindolin-2-one], for which, on PI3Kalpha, the “Relative Selectivity versus PI3Kalpha” value is reported as above 10. Also, on PI3Kdelta, the IC50 was 3 nM.

On to `CCn1c(-c2cnc(C)nc2)nc2c(-c3ccc4c(c3)C(C)(Nc3ccncc3)C(=O)N4)ncnc21` (racemic) [Compound 2-9, (R and S)-5-[9-ethyl-8-(2-methylpyrimidin-5-yl)-9H-purin-6-yl]-3-methyl-3-(pyridin-4-ylamino)-1,3-dihydro-2H-indol-2-one], for which the “Relative Selectivity versus PI3Kalpha” value on PI3Kalpha is above 10. At PI3Kdelta, the IC50 was found to be 144 nM.

Regarding `Cc1ncc(-c2nc3c(-c4cnc5c(c4)C(C)(NCC(C)(C)F)C(=O)N5)ncnc3n2C)cn1` (single isomer, unassigned) [Compound 2-59, (S or R)-5-(9-methyl-8-(2-methylpyrimidin-5-yl)-9H-purin-6-yl)-3-((2-fluoro-2-methylpropyl)amino)-3-methyl-1H-pyrrolo[2,3-b]pyridin-2(3H)-one], the “Relative Selectivity versus PI3Kalpha” value on PI3Kalpha is given as above 10. Also, the IC50 on PI3Kdelta came out at 2 nM.

As for `CCn1c(-c2cnc(C)nc2)nc2c(-c3ccc4oc(=O)n(C(C)C5CC5)c4c3)ncnc21` (single isomer, unassigned) [Compound 5-6, (R or S)-3-(1-cyclopropylethyl)-5-[9-ethyl-8-(2-methylpyrimidin-5-yl)-9H-purin-6-yl]-1,3-benzoxazol-2(3H)-one], the “Relative Selectivity versus PI3Kalpha” value at PI3Kalpha is given as above 10. In addition, the half-maximal inhibitory concentration (IC50) at PI3Kdelta was determined as 5 nM.

`CCn1c(-c2cnc(C)nc2)nc2c(-c3ccc4c(c3)C(Cc3ccccc3)OC(=O)N4)ncnc21` (single isomer, unassigned) [Compound 4-2, (R or S)-4-benzyl-6-[9-ethyl-8-(2-methylpyrimidin-5-yl)-9H-purin-6-yl]-1,4-dihydro-2H-3,1-benzoxazin-2-one]: the “Relative Selectivity versus PI3Kalpha” value on PI3Kalpha is recorded as above 10. The IC50 on PI3Kdelta was 35 nM.

Turning to `CCn1c(-c2cnc(C)nc2)nc2c(-c3ccc4c(c3)C(C)(N3C[C@H]5C[C@@H]3CO5)C(=O)N4)ncnc21` (mixture of isomers) [Compound 2-26, 5-[9-ethyl-8-(2-methylpyrimidin-5-yl)-9H-purin-6-yl]-3(R and S)-methyl-3-[(1R,4R)-2-oxa-5-azabicyclo[2.2.1]hept-5-yl]-1,3-dihydro-2H-indol-2-one], at PI3Kalpha, the “Relative Selectivity versus PI3Kalpha” value is listed as above 10. The IC50 on PI3Kdelta stood at 58 nM.

For the compound `CCn1c(-c2cnc(C)nc2)nc2c(-c3ccc4c(c3)C3(CCCN3S(C)(=O)=O)C(=O)N4C)ncnc21` (single isomer, unassigned) [Compound 3-23, (R or S)-5-(9-ethyl-8-(2-methylpyrimidin-5-yl)-9H-purin-6-yl)-1-methyl-1′-(methylsulfonyl)spiro[indoline-3,2′-pyrrolidin]-2-one], the “Relative Selectivity versus PI3Kalpha” value at PI3Kalpha is listed as above 10. Also, the IC50 at PI3Kdelta was 6 nM.

As to `CCn1c(-c2cnc(C)nc2)nc2c(-c3ccc4c(c3)C(C)(N3CC(C)(C#N)C3)C(=O)N4)ncnc21` (single isomer, unassigned) [Compound 2-6, (R or S)-1-{5-[9-ethyl-8-(2-methylpyrimidin-5-yl)-9H-purin-6-yl]-3-methyl-2-oxo-2,3-dihydro-1H-indol-3-yl}-3-methylazetidine-3-carbonitrile], the “Relative Selectivity versus PI3Kalpha” value at PI3Kalpha is recorded as above 10. Besides, on PI3Kdelta, the IC50 was 3 nM.

`Cc1ncc(-c2nc3c(-c4ccc5c(c4)C4(CCCN4C(=O)C4CC4)C(=O)N5CCN4CCOCC4)ncnc3n2C)cn1` (single isomer, unassigned) [Compound 3-16, (R or S)-1′-(cyclopropanecarbonyl)-5-(9-methyl-8-(2-methylpyrimidin-5-yl)-9H-purin-6-yl)-1-(2-morpholinoethyl)spiro[indoline-3,2′-pyrrolidin]-2-one]: the “Relative Selectivity versus PI3Kalpha” value at PI3Kalpha is reported as above 10. At PI3Kdelta, the IC50 amounted to 2 nM.

Regarding `Cc1ncc(-c2nc3c(-c4ccc5c(c4)C(C)(NCC(C)(C)F)C(=O)N5)ncnc3n2C)cn1` (single isomer, unassigned) [Compound 2-68, (R or S)-3-((2-fluoro-2-methylpropyl)amino)-3-methyl-5-(9-methyl-8-(2-methylpyrimidin-5-yl)-9H-purin-6-yl)indolin-2-one], the “Relative Selectivity versus PI3Kalpha” value on PI3Kalpha is above 10. On PI3Kdelta, the half-inhibitory concentration (IC50) came out at 2 nM.

For the compound `CCn1c(-c2cnc(C)nc2)nc2c(-c3ccc4c(c3)C(C)(N3CCC5OCCC53)C(=O)N4)ncnc21` (racemic) [Compound 2-10, (R and S)-5-[9-ethyl-8-(2-methylpyrimidin-5-yl)-9H-purin-6-yl]-3-(hexahydro-4H-furo[3,2-b]pyrrol-4-yl)-3-methyl-1,3-dihydro-2H-indol-2-one], the “Relative Selectivity versus PI3Kalpha” value at PI3Kalpha was above 10. On PI3Kdelta, the IC50 worked out at 14 nM.

As to `CCn1c(-c2cnc(C)nc2)nc2c(-c3ccc4c(c3)C(C)(N3CC(OC)C3)C(=O)N4)ncnc21` (single isomer, unassigned) [Compound 2-79, (R or S)-5-(9-ethyl-8-(2-methylpyrimidin-5-yl)-9H-purin-6-yl)-3-(3-methoxyazetidin-1-yl)-3-methylindolin-2-one], the “Relative Selectivity versus PI3Kalpha” value on PI3Kalpha is above 10. At PI3Kdelta, the IC50 was found to be 15 nM.

As for `CCn1c(-c2cnc(C)nc2)nc2c(-c3ccc4c(c3)C(C)(N(C)C(C)C)C(=O)N4)ncnc21` (racemic) [Compound 2-15, (R and S)-5-[9-ethyl-8-(2-methylpyrimidin-5-yl)-9H-purin-6-yl]-3-methyl-3-[methyl(1-methylethyl)amino]-1,3-dihydro-2H-indol-2-one], the “Relative Selectivity versus PI3Kalpha” value at PI3Kalpha is on record as above 10. The IC50 at PI3Kdelta stood at 46 nM.

As to `CCN1C(=O)C2(CCCN2C(=O)C2CC2)c2cc(-c3ncnc4c3nc(-c3cnc(C)nc3)n4CC)ccc21` (single isomer, unassigned) [Compound 3-9, (R or S)-1′-(cyclopropanecarbonyl)-1-ethyl-5-(9-ethyl-8-(2-methylpyrimidin-5-yl)-9H-purin-6-yl)spiro[indoline-3,2′-pyrrolidin]-2-one], on PI3Kalpha, the “Relative Selectivity versus PI3Kalpha” value was above 10. For the same compound, the IC50 at PI3Kdelta turned out to be 5 nM.

With `CCn1c(-c2cnc(C)nc2)nc2c(-c3ccc4c(c3)C(Cc3ccccc3)OC(=O)N4)ncnc21` (single isomer, unassigned) [Compound 4-1, (R or S)-4-benzyl-6-[9-ethyl-8-(2-methylpyrimidin-5-yl)-9H-purin-6-yl]-1,4-dihydro-2H-3,1-benzoxazin-2-one], the “Relative Selectivity versus PI3Kalpha” value at PI3Kalpha turned out to be 2. Further, the concentration for half-maximal inhibition (IC50) at PI3Kdelta stood at 97 nM.

With `CCn1c(-c2cnc(C)nc2)nc2c(-c3ccc4c(c3)C(C)(N3C[C@@H](F)[C@H](F)C3)C(=O)N4)ncnc21` (single isomer, unassigned) [Compound 2-61, 3-(R or S)-((3R,4R)-3,4-difluoropyrrolidin-1-yl)-5-(9-ethyl-8-(2-methylpyrimidin-5-yl)-9H-purin-6-yl)-3-methylindolin-2-one], the “Relative Selectivity versus PI3Kalpha” value at PI3Kalpha is above 10. The IC50 at PI3Kdelta came to 35 nM.

For the compound `CCn1c(-c2cnc(C)nc2)nc2c(-c3ccc4c(c3)C(C)(CC(C)C)NS4(=O)=O)ncnc21` (single isomer, unassigned) [Compound 4-6, (R or S)-9-ethyl-6-[3-methyl-3-(2-methylpropyl)-1,1-dioxido-2,3-dihydro-1,2-benzisothiazol-5-yl]-8-(2-methylpyrimidin-5-yl)-9H-purine], the “Relative Selectivity versus PI3Kalpha” value on PI3Kalpha is listed as above 10. Moreover, the half-maximal inhibitory concentration (IC50) on PI3Kdelta is 55 nM.

For the compound `CCn1c(-c2cnc(C)nc2)nc2c(-c3ccc4oc(=O)n(C(C)c5ccccc5)c4c3)ncnc21` (single isomer, unassigned) [Compound 5-2, (R or S)-5-[9-ethyl-8-(2-methylpyrimidin-5-yl)-9H-purin-6-yl]-3-(1-phenylethyl)-1,3-benzoxazol-2(3H)-one], the “Relative Selectivity versus PI3Kalpha” value on PI3Kalpha was above 10. In addition, at PI3Kdelta, the IC50 amounted to 37 nM.

For `CCn1c(-c2cnc(C)nc2)nc2c(-c3ccc4oc(=O)n(C5CCOCC5)c4c3)ncnc21` [Compound 5-9, 5-(9-ethyl-8-(2-methylpyrimidin-5-yl)-9H-purin-6-yl)-3-(tetrahydro-2H-pyran-4-yl)benzo[d]oxazol-2(3H)-one], the “Relative Selectivity versus PI3Kalpha” value on PI3Kalpha is above 10. Besides, the IC50 at PI3Kdelta stood at 151 nM.

For `Cc1ncc(-c2nc3c(-c4cnc5c(c4)C(C)(NCC(C)(C)F)C(=O)N5)ncnc3n2C)cn1` (single isomer, unassigned) [Compound 2-60, (S or R)-5-(9-methyl-8-(2-methylpyrimidin-5-yl)-9H-purin-6-yl)-3-((2-fluoro-2-methylpropyl)amino)-3-methyl-1H-pyrrolo[2,3-b]pyridin-2(3H)-one], at PI3Kalpha, the “Relative Selectivity versus PI3Kalpha” value worked out at 8. On PI3Kdelta, the IC50 worked out at 133 nM.

With `CCn1c(-c2cnc(C)nc2)nc2c(-c3ccc4c(c3)C(C)(CC(C)C)OC(=O)N4)ncnc21` (single isomer, unassigned) [Compound 4-4, (R or S)-6-[9-ethyl-8-(2-methylpyrimidin-5-yl)-9H-purin-6-yl]-4-methyl-4-(2-methylpropyl)-1,4-dihydro-2H-3,1-benzoxazin-2-one], on PI3Kalpha, the “Relative Selectivity versus PI3Kalpha” value is on record as above 10. Further, the IC50 at PI3Kdelta turned out to be 4 nM.

As for `CCn1c(-c2cnc(C)nc2)nc2c(-c3ccc4c(c3)C(C)(NCCOC)C(=O)N4)ncnc21` (racemic) [Compound 2-16, (R and S)-5-[9-ethyl-8-(2-methylpyrimidin-5-yl)-9H-purin-6-yl]-3-[(2-methoxyethyl)amino]-3-methyl-1,3-dihydro-2H-indol-2-one], the “Relative Selectivity versus PI3Kalpha” value at PI3Kalpha was above 10. The IC50 on PI3Kdelta stood at 43 nM.

`CCn1c(-c2cnc(C)nc2)nc2c(-c3ccc4c(c3)C(C)(NCC(C)(C)C#N)C(=O)N4)ncnc21` (single isomer, unassigned) [Compound 2-39, (R or S)-3-((5-(9-ethyl-8-(2-methylpyrimidin-5-yl)-9H-purin-6-yl)-3-methyl-2-oxoindolin-3-yl)amino)-2,2-dimethylpropanenitrile]: the “Relative Selectivity versus PI3Kalpha” value on PI3Kalpha is above 10. Moreover, the IC50 at PI3Kdelta is 3 nM.
